Where two headings read alike, the source gives them in different places.
Legend:
cathepsin S (CatS) = cathepsin S (CatS) (Homo sapiens, UniProt P25774); experiment: Cathepsin S enzyme inhibition; type: biochemical; details: SD lower than 15%; read-out: pKi CatS (converted)
Method: (§1) Enzyme inhibition studies for Cz and LmCPB were performed as previously described for Cz. The experimental procedures are described in the Supporting Information (see chapter S3). Cathepsins B, L, S were assayed as reported.

cathepsin B (CatB) = cathepsin B (CatB) (Homo sapiens, UniProt P07858); experiment: Cathepsin B enzyme inhibition; type: biochemical; details: for remaining activity at 10 µM: replicates = 2, n.i. = no inhibition observed at 10 μM; for Ki: SD lower than 15%, read-out: pKi CatB (converted)
[1] = test system: T. cruzi Tulahuen LacZ strain, intracellular amastigote forms; experiment: In vitro trypanocidal activity on intracellular amastigote forms (Tulahuen strain); type: cell-based, Trypanosoma cruzi; details: for SI (selective index): from EC50 (T. cruzi) and CC50 (LLCMK2)
Method: Cells were evaluated in 96-well plates. Cells from the LLCMK2 lineage were plated at a concentration of 5x10^4 cells mL^-1. Trypomastigote forms of the Tulahuen LacZ strain were added at a concentration of 5×10^5 parasites mL^-1 and placed in the incubator at 37°C with 5% CO2 for 24 h. After the incubation period, the trypomastigote forms present were removed by successive washes with PBS, remaining only as intracellular amastigote forms. Compounds were added at different concentrations (1.95 μM to 250 μM serial dilutions) and incubated for 72 h. At the end of this period, the substrate CPRG (chlorophenol red β-D-galactopyranoside, 400 μM in 0.3% Triton X-100, pH 7.4) was added. […] Benznidazole was used as a positive control in the same concentrations as the substances, and DMSO as a negative control. Compounds were solubilized in DMSO. The selectivity index (SI) was calculated using the formula: […]. All statistical analyses were done with the program GraphPad Prism v.5.

[2] = molecular target: Leishmania mexicana CPB (LmCPB) (Leishmania mexicana, UniProt P36400); experiment: LmCPB enzyme inhibition; type: biochemical
Method: as §1

[3] = Mammalian cytotoxicity assay (MTT); type: cell-based; details: rhesus monkey, LLCMK2 cells;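 further: Read-out is absorbance at 570 nm of formazan taken up in DMSO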
[4] = molecular target: T1, Human recombinant cathepsin K (Homo sapiens, UniProt P43235); experiment: Cathepsin K assay; type: biochemical; details: for Ki: SD lower than 15%, read-out: pKi CatK (converted); for remaining activity at 10 µM: replicates = 2, n.i. = no inhibition observed at 10 μM, read-out: remaining activity (%) at 10 μM, CatK
T1 sequence (P43235 115-329): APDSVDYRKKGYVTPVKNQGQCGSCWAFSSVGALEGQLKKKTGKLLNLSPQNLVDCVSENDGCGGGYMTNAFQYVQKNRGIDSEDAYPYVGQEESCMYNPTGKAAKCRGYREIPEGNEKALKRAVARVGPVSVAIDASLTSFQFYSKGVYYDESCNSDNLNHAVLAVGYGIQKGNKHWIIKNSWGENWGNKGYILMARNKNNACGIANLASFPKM
Method: Human recombinant cathepsin K was assayed on a FLUOSTAR Optima plate reader at 25 °C with an excitation wavelength of 360 nm and an emission wavelength of 440 nm on a 96 well plate. The enzyme solution (23 μg/mL in 50 mM sodium acetate pH 5.5, 50 mM NaCl, 0.5 mM EDTA, 5 mM DTT) was diluted 1:100 with assay buffer (100 mM sodium citrate buffer pH 5.0, 100 mM NaCl, 1 mM EDTA, 0.01% CHAPS) containing 5 mM DTT and was then incubated at 37 °C for 30 min for activation. A 1.5 mM stock solution of the substrate Z-Leu-Arg-AMC was prepared in DMSO. […] The assay was performed with a final concentration of cathepsin K of 1.73 ng/mL. Stock solutions of inhibitors were prepared in DMSO. The final DMSO concentration was 2% (4 μL). Into a well containing 194.5 μL assay buffer, 0.8 μL of the fluorogenic substrate, DMSO and inhibitor solution (3.2 μL) were added. Upon addition of cathepsin K (1.5 μL), the measurement was started and followed for 20 min.

cathepsin L (CatL) = cathepsin L (CatL) (Homo sapiens, UniProt P07711); experiment: Cathepsin L enzyme inhibition; type: biochemical; details: SD lower than 15%; for Ki: read-out: pKi CatL (converted)
recombinant cruzain (Cz) = recombinant cruzain (Cz) (Trypanosoma cruzi, UniProt P25779); experiment: Cruzain enzyme inhibition; type: biochemical
Method: as §1

[5] = Trypanosoma cruzi, TULAHUEN, 72 h, amastigote, Tulahuen strain, 72 h, Table 2, read-out: EC50 trypanocidal activity
[6] = Trypanosoma cruzi, TULAHUEN, T. cruzi amastigote form, S1 Table, read-out: pEC50 (converted)
[7] = SD lower than 15%, read-out: pKi LmCPB (converted)
[8] = LLCMK2, 72 h, MTT, Table 2, read-out: CC50 cytotoxicity
[9] = S1 Table, maximum concentration used 250 µM, read-out: CC50
[10] = SD lower than 15%, read-out: pKi Cz (converted)
[11] = Trypanosoma cruzi, TULAHUEN, S1 Table, maximum concentration used 250 µM, read-out: EC50 T. cruzi
[12] = Trypanosoma cruzi, TULAHUEN, read-out: EC50 T. cruzi, S1 Table, maximum concentration used 250 µM
[13] = Trypanosoma cruzi, TULAHUEN, read-out: pEC50, T. cruzi amastigote form (converted), S1 Table

cathepsin S (CatS), sequence (P25774 115-331): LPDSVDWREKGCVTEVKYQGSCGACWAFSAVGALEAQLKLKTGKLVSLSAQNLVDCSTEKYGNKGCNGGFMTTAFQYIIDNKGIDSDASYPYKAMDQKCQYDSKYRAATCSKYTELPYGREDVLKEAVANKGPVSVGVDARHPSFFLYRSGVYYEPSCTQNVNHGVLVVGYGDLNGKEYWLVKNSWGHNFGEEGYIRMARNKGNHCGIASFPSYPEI
Leishmania mexicana CPB (LmCPB), sequence (P36400 126-443): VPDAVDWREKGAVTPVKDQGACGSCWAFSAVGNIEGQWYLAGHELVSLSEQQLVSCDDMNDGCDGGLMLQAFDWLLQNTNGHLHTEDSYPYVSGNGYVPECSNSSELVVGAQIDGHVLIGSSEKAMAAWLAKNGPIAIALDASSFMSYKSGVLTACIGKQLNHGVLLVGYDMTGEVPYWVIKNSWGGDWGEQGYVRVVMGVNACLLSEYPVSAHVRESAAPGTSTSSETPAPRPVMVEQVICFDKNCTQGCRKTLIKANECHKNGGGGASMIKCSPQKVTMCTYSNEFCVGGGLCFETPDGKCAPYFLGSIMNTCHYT
cathepsin L (CatL), sequence (P07711 114-333): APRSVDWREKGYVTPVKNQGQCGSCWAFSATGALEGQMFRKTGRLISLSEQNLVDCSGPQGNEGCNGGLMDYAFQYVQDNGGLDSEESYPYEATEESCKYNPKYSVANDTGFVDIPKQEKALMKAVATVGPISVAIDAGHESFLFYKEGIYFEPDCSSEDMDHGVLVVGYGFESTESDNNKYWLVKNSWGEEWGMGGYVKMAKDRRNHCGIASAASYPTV
recombinant cruzain (Cz), sequence (P25779 123-337): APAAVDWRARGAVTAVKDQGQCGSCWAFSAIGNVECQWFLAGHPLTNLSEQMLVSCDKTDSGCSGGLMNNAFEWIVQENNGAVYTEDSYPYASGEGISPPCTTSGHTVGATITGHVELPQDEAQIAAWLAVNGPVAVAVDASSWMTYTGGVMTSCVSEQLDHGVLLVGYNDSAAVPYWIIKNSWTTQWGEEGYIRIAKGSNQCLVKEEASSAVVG

SMILES | Ki (cathepsin S (CatS)) [µM] | melting point [°C] | EC50 [1, 5] [µM] | EC50 [1, 6] [µM] | SI (selective index) ([1]; Table 2) | Ki [2, 7] [µM] | CC50 at 72 h [3, 8] [µM] | CC50 at 72 h [3, 9] [µM] | Ki [4] [µM] | Ki (cathepsin L (CatL)) [µM] | Ki (recombinant cruzain (Cz); [10]) [µM] | EC50 [1, 12] [µM] | EC50 [1, 13] [µM] | Ki (cathepsin B (CatB)) [µM] | further results
CC(C)CC(C#N)NC(=O)[C@H](Cc1ccccc1)NC(=O)c1cc(C(C)(C)C)nn1C (stereo in doubt) [Compound 53, 3-(tert-Butyl)-N-((S)-1-(((S)-1-cyano-3-methylbutyl)amino)-1-oxo-3-phenylpropan-2-yl)-1-methyl-1H-pyrazole-5-carboxamide] | 1 | 91 to 94 | 26 ± 2.6 | 25.1 | > 3.8 | 0.398 | > 100 | 132 | 1 | 0.1 | 0.316 |  |  |  | remaining activity at 10 µM (cathepsin B (CatB)): 90%
O=C(Cn1ccnc1[N+](=O)[O-])NCc1ccccc1 [Benznidazole, reference compound] |  |  | 4.4 ± 0.47 | 3.98 | > 23 |  | > 100 |  |  |  |  |  |  |  | EC50 [1, 11]: 4.3 µM
N#CC1(NC(=O)[C@H](Cc2ccccc2)NC(=O)c2ccccc2)CC1 [Compound 6] | 0.0794 |  |  |  |  | 0.251 |  |  | 0.398 |  |  | > 100 | > 100 |  | pKi CatL (cathepsin L (CatL)): 7.4
N#CC1(NC(=O)[C@H](Cc2cccc(Cl)c2)NC(=O)c2ccccc2)CC1 [Compound 7, (S)-N-(3-(3-Chlorophenyl)-1-((1-cyanocyclopropyl)amino)-1-oxopropan-2-yl)benzamide] | 0.02 | 213 to 215 |  |  |  | 0.631 |  | 4 | 0.631 | 0.0501 | 0.126 | > 100 | > 100 | 3.16 | 
Cn1nc(C(C)(C)C)cc1C(=O)N[C@@H](Cc1cccc(Cl)c1)C(=O)NC1(C#N)CC1 [Compound 8, (S)-3-(tert-Butyl)-N-(3-(3-chlorophenyl)-1-((1-cyanocyclopropyl)amino)-1-oxopropan-2-yl)-1-methyl-1H-pyrazole-5-carboxamide] | 0.2 | 152 to 154 |  |  |  | 0.2 |  | > 100 | 0.398 | 0.00251 | 0.0398 | > 100 | > 100 | 3.98 | EC50 ([1]; Trypanosoma cruzi, TULAHUEN, amastigote forms of T. cruzi (Tuhaluen strain), Figs 12-14, unit inferred): > 100 µM
Cn1nc(C(C)(C)C)cc1C(=O)N[C@@H](Cc1ccccc1)C(=O)NC1(C#N)CC1 [Compound 9] | 0.158 |  |  |  | > 1.4 | 0.0794 | > 100 |  | 0.316 | 0.00631 | 0.0501 |  | 79.4 | 15.8 | EC50 ([1]; Trypanosoma cruzi, TULAHUEN, 72 h, read-out: EC50 trypanocidal activity, amastigote, Tulahuen strain, 72 h, Table 2): 71.8 µM; EC50 ([1]; amastigote, Tulahuen strain, 72 h, Table 2, read-out: EC50 trypanocidal activity): 72 ± 5.7 µM
Cn1nc(C(C)(C)C)cc1C(=O)N[C@@H](Cc1ccncc1)C(=O)NC1(C#N)CC1 [Compound 10, (S)-3-(tert-Butyl)-N-(1-((1-cyanocyclopropyl)amino)-1-oxo-3-(pyridin-4-yl)propan-2-yl)-1-methyl-1H-pyrazole-5-carboxamide] | 2.51 |  | 67.6 ± 8.22 |  | > 1.5 | 0.398 | > 100 |  | 10 | 0.0251 | 0.251 |  | 63.1 |  | remaining activity at 10 µM (cathepsin B (CatB)): 93%
CC(C)C[C@H](NC(=O)c1cc(C(C)(C)C)nn1C)C(=O)NC1(C#N)CC1 [Compound 11] | 0.0398 |  |  |  |  | 0.0501 |  | > 100 | 0.00501 | 0.0251 | 0.0158 | > 100 | > 100 | 31.6 | difference in pKi, Cz (recombinant cruzain (Cz); relative to compound 9, sign not given, direction by cell colour or wording): 0.5
C[C@@H](OCc1ccccc1)[C@H](NC(=O)c1cc(C(C)(C)C)nn1C)C(=O)NC1(C#N)CC1 [Compound 12, N-((2S,3R)-3-(Benzyloxy)-1-((1-cyanocyclopropyl)amino)-1-oxobutan-2-yl)-3-(tert-butyl)-1-methyl-1H-pyrazole-5-carboxamide] | 1.26 | 100 to 101 | 32.7 ± 3.86 |  | > 3.1 | 3.16 | > 100 |  |  | 1.26 | 7.94 |  | 31.6 | 39.8 | remaining activity at 10 µM [4]: 96%
N#CC1(NC(=O)[C@H](Cc2ccccc2)NC(=O)c2ccnc3cc(Cl)ccc23)CC1 [Compound 13, (S)-7-Chloro-N-(1-((1-cyanocyclopropyl)amino)-1-oxo-3-phenylpropan-2-yl)quinoline-4-carboxamide] | 0.2 | 260 to 262 |  |  |  |  |  | > 100 |  | 0.0631 |  | > 100 | > 100 | 12.6 | Ki [2]: 0.126 µM; remaining activity at 10 µM [4]: 81%; Ki (recombinant cruzain (Cz)): 0.2 µM
Cn1nc(C(C)(C)C)cc1C(=O)N[C@@H](Cc1ccccc1)C(=O)N[C@H](C#N)Cc1ccncc1 [Compound 55, 3-(tert-Butyl)-N-((S)-1-(((S)-1-cyano-2-(pyridin-4-yl)ethyl)amino)-1-oxo-3-phenylpropan-2-yl)-1-methyl-1H-pyrazole-5-carboxamide] | 0.0631 |  |  | > 100 |  |  |  | > 100 | 0.316 | 0.00501 |  |  |  | 15.8 | EC50 [1, 11]: > 100 µM; Ki [2]: 0.0631 µM; Ki (recombinant cruzain (Cz)): 0.0316 µM
C[C@@H](OCc1ccccc1)[C@@H](C#N)NC(=O)[C@H](Cc1cccc(Cl)c1)NC(=O)c1cc(C(C)(C)C)nn1C [Compound 60, N-((S)-1-(((1R,2R)-2-(Benzyloxy)-1-cyanopropyl)amino)-3-(3-chlorophenyl)-1-oxopropan-2-yl)-3-(tert-butyl)-1-methyl-1H-pyrazole-5-carboxamide] | 0.316 |  | 4.9 ± 0.45 | 5.01 | > 20 | 0.158 | > 100 | 125 | 1 | 0.00794 | 0.0631 |  |  | 0.501 | fold increase in trypanocidal potency ([1]; compared with compound 9): 14.5 fold
C[C@@H](O)[C@@H](C#N)NC(=O)[C@H](Cc1cccc(Cl)c1)NC(=O)c1cc(C(C)(C)C)nn1C [Compound 69, 3-(tert-butyl)-N-((S)-3-(3-chlorophenyl)-1-(((1R,2R)-1-cyano-2-hydroxypropyl)amino)-1-oxopropan-2-yl)-1-methyl-1H-pyrazole-5-carboxamide] | 0.251 |  | 30.6 ± 3.11 | 31.6 |  | 1 | > 100 |  | 0.794 | 0.00631 | 0.126 |  |  | 6.31 | EC50 [1, 11]: 30.5 µM
